Reference: ChEMBL document CHEMBL4373702, “Intracellular Trapping of the Selective Phosphoglycerate Dehydrogenase (PHGDH) Inhibitor BI-4924 Disrupts Serine Biosynthesis” (J Med Chem, 2019)

How the values were obtained:
[1] = target: T1, D-3-phosphoglycerate dehydrogenase (Homo sapiens, UniProt O43175); assay: Inhibition of N-terminal His6-tagged human PHGDH (4 to 315 residues) assessed as effect on NADH fluorescence incubated for 2 hrs using 3-PG substrate in presence of 19 uM NAD+ and PSAT1 by diaphorase based luminescence assay
T1 sequence (O43175 whole entry): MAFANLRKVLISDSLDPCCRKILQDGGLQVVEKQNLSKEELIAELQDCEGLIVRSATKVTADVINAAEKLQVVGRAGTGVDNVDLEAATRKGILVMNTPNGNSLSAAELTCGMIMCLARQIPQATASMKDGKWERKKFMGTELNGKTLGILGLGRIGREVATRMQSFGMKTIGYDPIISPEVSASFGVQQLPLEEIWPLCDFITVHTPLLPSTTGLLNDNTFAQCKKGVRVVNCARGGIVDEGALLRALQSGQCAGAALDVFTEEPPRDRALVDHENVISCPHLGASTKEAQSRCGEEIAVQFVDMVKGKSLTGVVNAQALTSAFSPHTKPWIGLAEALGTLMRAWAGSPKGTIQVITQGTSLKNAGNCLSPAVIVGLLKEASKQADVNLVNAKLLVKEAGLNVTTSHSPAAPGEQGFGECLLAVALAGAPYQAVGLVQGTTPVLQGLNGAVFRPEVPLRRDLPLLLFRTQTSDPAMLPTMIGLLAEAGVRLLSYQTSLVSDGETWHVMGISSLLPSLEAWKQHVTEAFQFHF

[2] = target: T1, D-3-phosphoglycerate dehydrogenase; assay: Inhibition of N-terminal His6-tagged human PHGDH (4 to 315 residues) assessed as effect on NADH fluorescence incubated for 2 hrs using 3-PG substrate in presence of 250 uM NAD+ and PSAT1 by diaphorase based luminescence assay
[3] = target: T1, D-3-phosphoglycerate dehydrogenase; assay: Inhibition of His6-tagged PHGDH (unknown origin) expressed in Escherichia coli BL21 assessed as effect on NADH fluorescence incubated for 60 mins using 3-PG as substrate in presence of 500 uM NAD+ and PSAT1 by diaphorase and resazurin dye based fluorescence assay
[4] = target: T1, D-3-phosphoglycerate dehydrogenase; assay: Binding affinity to N-terminal His6-tagged human PHGDH (4 to 315 residues)by SPR assay
[5] = target: T1, D-3-phosphoglycerate dehydrogenase; assay: Binding affinity to human PHGDH ( 1 to 533 residues) expressed in Escherichia coli Rosetta (DE3) by Sypro-orange dye based differential scanning fluorimetry
[6] = target: T1, D-3-phosphoglycerate dehydrogenase; assay: Inhibition of PHGDH in human MDA-MB-468 cells assessed as reduction in [13C]-serine incubated for 1 hr using [13C]glucose as substrate by LC-MS/MS analysis; assay type: cell-based
[7] = Drug uptake in human MDA-MB-468 cells assessed as BI-4924 levels at 3 uM measured up to 72 hrs relative to control; assay type: ADME, cell-based; details: mda-mb-468, 72 h
[8] = Drug uptake in human MDA-MB-468 cells assessed as BI-4924 levels at 3 uM measured up to 72 hrs; assay type: ADME, cell-based; details: mda-mb-468, 72 h, TDE = time-dependent effect
[9] = Half life in mouse serum; assay type: ADME, cell-free
[10] = target: T1, D-3-phosphoglycerate dehydrogenase; assay: Inhibition of PHGDH in human MDA-MB-468 cells assessed as reduction in [13C]-serine incubated for 72 hrs using [13C]glucose as substrate by LC-MS/MS analysis; assay type: cell-based
[11] = Half life in 10% fetal calf serum; assay type: ADME, cell-free, Bos taurus; details: cattle

IC50 [1] [µM]	Compound	other results
6.7	CC(NC(=O)c1cc(-c2ccccc2)nn1C)c1ccc(N(C)S(C)(=O)=O)cc1 (racemic)	–
0.254	C[C@@H](NC(=O)c1cc2cc(Cl)ccc2n1C)c1ccc(C(=O)O)cc1	IC50 [2]: 2.37 µM
–	CC(=O)NS(=O)(=O)N1CCC(NC(=O)c2cc3c(Cl)c(Cl)ccc3n2C)C(CC(=O)O)C1 (stereo not drawn)	IC50 [3]: 0.01 to 1.5 µM
0.051	Cc1cc2c(cc1Cl)cc(C(=O)N[C@H](C)c1ccc(C(=O)O)cc1)n2C	IC50 [2]: 0.412 µM
0.081	C[C@@H](NC(=O)c1cc2c(Cl)cc(C(F)F)cc2n1C)c1ccc(C(=O)O)cc1	IC50 [2]: 0.714 µM
12.2	C[C@@H](NC(=O)c1cc(-c2ccccc2)nn1C)c1ccc(N2CC[C@H](O)C2)cc1	–
0.03	CCc1cc(Cl)c2cc(C(=O)N[C@H](C)c3ccc(C(=O)O)cc3)n(C)c2c1	IC50 [2]: 0.301 µM
21.5	C[C@@H](NC(=O)c1cc(-c2ccccc2)nn1C)c1ccc(-c2cncnc2)cc1	–
0.061	C[C@@H](NC(=O)c1cc2cc(Cl)c(Br)cc2n1C)c1ccc(C(=O)O)cc1	IC50 [2]: 0.341 µM
0.058	C[C@@H](NC(=O)c1cc2c3ccccc3ccc2n1C)c1ccc(C(=O)O)cc1	IC50 [2]: 0.345 µM
0.003	Cc1cc(Cl)c2cc(C(=O)N[C@H](C)c3ccc(S(=O)(=O)CC(=O)O)cc3)n(C)c2c1	–
16.2	COc1ccc([C@@H](C)NC(=O)c2cc(-c3ccccc3)nn2C)cc1	–
0.1	CC(=O)NS(=O)(=O)c1ccc([C@@H](C)NC(=O)c2cc(-c3ccccc3)nn2C)cc1	–
0.1	C[C@@H](NC(=O)c1cc(-c2ccccc2)nn1C)c1ccc(N2C(=O)CC[C@H]2C(=O)O)cc1	–
0.028	Cc1cc2c(cc(C(=O)N[C@H](C)c3ccc(C(=O)O)cc3)n2C)c2ccccc12	IC50 [2]: 0.249 µM
0.9	CC(NC(=O)c1cc(-c2ccccc2)nn1C)c1ccc(C(=O)O)cc1 (racemic)	–
> 100	COCC(NC(=O)c1cc2cc(Cl)ccc2n1C)c1ccccc1 (racemic)	–
0.025	C[C@@H](NC(=O)c1cc(-c2ccccc2)nn1C)c1ccc(S(=O)(=O)CC(=O)O)cc1	–
–	Cn1nc(-c2ccccc2)cc1C(=O)NC1CC1	Kd [4]: 105 µM
> 100	C[C@@H](NC(=O)c1cc(-c2ccccc2)nn1C)c1ccc(N(C)C(=N)N)cc1	–
> 100	C[C@H](NC(=O)c1cc(-c2ccccc2)nn1C)c1ccccc1	–
0.002	Cc1cc2c(cc(C(=O)N[C@H](C)c3ccc(S(=O)(=O)CC(=O)O)cc3)n2C)c(Cl)c1Cl	–

IC50 [1] [µM]	Compound	other results
3.1	C[C@@H](NC(=O)c1cc(-c2ccccc2)nn1C)c1ccc(C(N)=O)cc1	–
–	NC(=O)c1ccc(F)c(Cl)c1	Kd [5]: 1500 µM
39.6	Cn1c(C(=O)NC(CN)c2ccccc2)cc2cc(Cl)ccc21 (racemic)	–
22	C[C@@H](NC(=O)c1cc(-c2ccccc2)nn1C)c1ccccc1	–
–	Cn1c(C(=O)Nc2cccc(C(=O)O)c2)cc2ccccc21	Kd [4]: 144 µM
> 100	Cn1c(C(=O)NC(C(=O)O)c2ccccc2)cc2cc(Cl)ccc21 (racemic)	–
33.7	CC(NC(=O)c1cc(-c2ccccc2)nn1C)c1ccc(C#N)cc1 (racemic)	–
2.3	C[C@@H](NC(=O)c1cc(-c2ccccc2)nn1C)c1ccc(N2C(=O)CNC2=O)cc1	–
11.7	C[C@H](O)[C@@H](NC(=O)c1cc2cc(Cl)ccc2n1C)c1ccccc1	–
–	CCOC(=O)CS(=O)(=O)c1ccc([C@@H](CO)NC(=O)c2cc3c(Cl)c(Cl)c(C)cc3n2C)cc1	IC50 [6]: 0.029 µM; fold change (FC) [7]: <= 140; Drug uptake [8]: Tde; half-life [9]: 2.25 h; IC50 [10]: 2 µM; half-life [11]: 4.6 h
100	Cn1c(C(=O)NC(CCO)c2ccccc2)cc2cc(Cl)ccc21 (racemic)	–
0.014	Cc1cc2c(cc(C(=O)N[C@H](C)c3ccc(C(=O)O)cc3)n2C)c(Cl)c1Cl	IC50 [2]: 0.095 µM
> 100	Cn1c(C(=O)NC(C(N)=O)c2ccccc2)cc2cc(Cl)ccc21 (racemic)	–
5.83	CC(NC(=O)c1cc(-c2ccccc2)nn1C)c1ccc(S(C)(=O)=O)cc1 (racemic)	–
> 100	Cn1nc(-c2ccccc2)cc1C(=O)NCc1ccccc1	–
5.2	C[C@@H](NC(=O)c1cc(-c2ccccc2)nn1C)c1ccc(N2C[C@@H](O)[C@@H](O)C2)cc1	–
0.03	C[C@@H](NC(=O)c1cc2c(Cl)c(Cl)ccc2n1C)c1ccc(C(=O)O)cc1	IC50 [2]: 0.228 µM
0.3	C[C@@H](NC(=O)c1cc(-c2ccccc2)nn1C)c1ccc(C(=O)NS(C)(=O)=O)cc1	–
3.3	C[C@@H](NC(=O)c1cc(-c2ccccc2)nn1C)c1ccc(N2CCCC2=O)cc1	–
38.1	C[C@@H](NC(=O)c1cc(-c2ccccc2)nn1C)c1ccc(N)cc1	–
0.4	C[C@@H](NC(=O)c1cc(-c2ccccc2)nn1C)c1ccc(C(=O)O)cc1	–
> 100	Cn1c(C(=O)N[C@@H](c2ccccc2)[C@@H](O)C(F)(F)F)cc2cc(Cl)ccc21 (relative stereo)	–

IC50 [1] [µM]	Compound	other results
1.3	Cn1nc(-c2ccccc2)cc1C(=O)NC(C)(C)c1ccc(C(=O)O)cc1	–
> 100	C[C@@H](NC(=O)c1cc(-c2ccccc2)nn1C)c1ccc(NC(=N)N)cc1	–
1.4	C[C@@H](NC(=O)c1cc(-c2ccccc2)nn1C)c1ccc(N(CC(=O)O)S(C)(=O)=O)cc1	–
0.824	C[C@@H](NC(=O)c1cc2cc(Cl)cc(OC(F)(F)F)c2n1C)c1ccc(C(=O)O)cc1	IC50 [2]: 6.69 µM
6	C[C@@H](NC(=O)c1cc(-c2ccccc2)nn1C)c1ccc(CO)cc1	–
53.8	C[C@@H](NC(=O)c1cc(-c2ccccc2)nn1C)c1ccc(NS(C)(=O)=O)cc1	–
1.95	C[C@@H](NC(=O)c1cc2ccccc2n1C)c1ccc(C(=O)O)cc1	–
5.2	Cn1c(C(=O)NC(CO)c2ccccc2)cc2cc(Cl)ccc21 (racemic)	–
> 100	Cn1c(C(=O)N[C@@H](c2ccccc2)[C@H](O)C(F)(F)F)cc2cc(Cl)ccc21 (relative stereo)	–
12.1	C[C@@H](O)[C@@H](NC(=O)c1cc2cc(Cl)ccc2n1C)c1ccccc1	–
0.028	Cc1cc(Cl)c2cc(C(=O)N[C@H](C)c3ccc(C(=O)O)cc3)n(C)c2c1	IC50 [2]: 0.246 µM
55.4	C[C@@H](NC(=O)c1cc(-c2ccccc2)nn1C)c1ccc([N+](=O)[O-])cc1	–
0.072	COc1cc(Cl)cc2cc(C(=O)N[C@H](C)c3ccc(C(=O)O)cc3)n(C)c12	IC50 [2]: 0.746 µM
0.07	CC(=O)NS(=O)(=O)c1ccc(C(C)NC(=O)c2cc(-c3ccccc3)nn2C)cc1 (racemic)	–
23.2	Cc1ccc([C@@H](C)NC(=O)c2cc(-c3ccccc3)nn2C)cc1	–
2.5	C[C@@H](NC(=O)c1cc(-c2ccccc2)nn1C)c1ccc(N2CCCS2(=O)=O)cc1	–
42.1	C[C@@H](NC(=O)c1cc(-c2ccccc2)nn1C)c1ccc(N2CCCC2)cc1	–
5.7	Cn1nc(-c2ccccc2)cc1C(=O)NCc1ccc(C(=O)O)cc1	–
4.3	CC(NC(=O)c1cc(-c2ccccc2)nn1C)c1ccc(S(N)(=O)=O)cc1 (racemic)	–
0.123	COc1cc(F)c(Cl)c2cc(C(=O)N[C@H](C)c3ccc(C(=O)O)cc3)n(C)c12	IC50 [2]: 1.29 µM
0.8	CC(NC(=O)c1cc(-c2ccccc2)nn1C)c1ccc(CC(=O)O)cc1 (racemic)	–
